Measurements published in patent US4487768A, “Cephem compounds” (Fujisawa Pharmaceutical Co., Ltd., priority 1982, dated 1984).
Converted amounts (≈) assume the structure as drawn.

Legend:
Proteus vulgaris 2 = experiment: Minimal inhibitory concentration, two-fold agar-plate dilution method; format: cell-based; details: HI-agar, 37° C., 20 hours, 10^8 viable cells per ml
Protocol: (§1) (A) Minimal inhibitory concentration 1 Test Method In vitro antibacterial activity was determined by the two-fold agar-plate dilution method as described below. One loopful of an overnight culture of each test strain in Trypticase-soy broth (10^8 viable cells per ml) was streaked on heart infusion agar (HI-agar) containing graded concentrations of representative test compound, and the minimal inhibitory concentration (MIC) was expressed in tems of μg/ml after incubation at 37° C. for 20 hours.

Proteus mirabilis 18 = experiment: as above; format: cell-based; details: HI-agar, 37° C., 20 hours, 10^8 viable cells per ml
Protocol: as §1

in vivo = details: rat, po, 100 mg/kg
Protocol: Rats anesthetized with pentobarbital were fixed in supine position, and a polyethylene cannula was inserted into the bile duct. Bile samples were collected at 0 to 3, 3 to 6, and 6 to 24 hours after oral administration of 100 mg/kg of the test antibiotic. The antibiotic levels in the bile samples were bioassayed with the standard solutions prepared with M/15 phosphate buffer (pH 7.0) and the biliary recovery in 24 hours were calculated.

[1] = Urinary excretion in rats after oral administration; format: in vivo; details: rat, oral 100 mg/kg, urine 0 to 6 and 6 to 24 hours, bioassay, read-out: Urinary recovery in 24 hours (%)
Protocol: Urine of rats was collected with a urine collector at 0 to 6, and 6 to 24 hours after oral administration of 100 mg/kg of the test antibiotic. The antibiotic levels in the urine samples were bioassayed with the standard solution prepared with M/15 phosphate buffer (pH 7.0) and the urinary recovery in 24 hours was calculated.

MIC (Proteus vulgaris 2): 0.1 µg/mL (≈ 0.207 µM)
MIC (Proteus mirabilis 18): 0.05 µg/mL (≈ 0.103 µM)
dose excreted at 24 h (in vivo): 4.72%
dose excreted at 24 h [1]: 26.6%
Structure (SMILES): [N-]=[N+]=NCC1=C(C(=O)O)N2C(=O)C(NC(=O)/C(=N\OCC(=O)O)c3nsc(N)n3)C2SC1 (stereo not drawn) [Test Compound (1), 7-[2-Carboxymethoxyimino-2-(5-amino-1,2,4-thiadiazol-3-yl)acetamido]-3-azidomethyl-3-cephem-4-carboxylic acid (syn isomer)]
